“Also recorded” adds a separate entry of the source.
Assays:
[1] = test system: B. subtilis 3610; assay: Pellicle assay (floating biofilm formation in MSgg medium); format: cell-based, Bacillus subtilis; conditions: for biofilm formation (promotion/induction/enhancement): B. subtilis 3610, 1 μM of the natural compound, compared with not treated; for pellicle formation (inhibition): B. subtilis, 1 μM
Description: B. subtilis, NCBI 3610 (hereafter referred to as “3610”), forms robust and highly structured biofilms in liquid medium. When inoculated into a standing culture of minimal medium, 3610 initially grows planktonically as motile, single cells. The cells then migrate to the air-liquid interface, where they proliferate as long chains of non-motile cells. These chains are highly ordered in parallel patterns and are bound together tightly, presumably by an extracellular matrix (ECM), to form a floating biofilm (pellicle). Growth of the bundled chains continues, giving rise to larger biofilm structures that include the fruiting bodies. Thus, we consider pellicles as a highly robust setting for the study of B. subtilis biofilms
Two different assays were used to screen a natural compounds library (AnalytiCon Discovery GmbH Germany (http://www.ac-discovery.com/) for biofilm formation. A Petri Assay was used to observed changes in structure and size of biofilms, while a Pellicle Assay was used to study biofilm inhibitors and biofilm induction (FIG. 1).
The protocol for the pellicle essay comprised the following steps:
A 2× solution of rich, defined biofilm-inducing MSgg medium (Branda, S. S., Gonzalez-Pastor, J. E., Ben-Yehuda, S., Losick, R. & Kolter, R. Fruiting body formation by Bacillus subtilis. Proceedings of the National Academy of Sciences of the United States of America 98, 11621-11626, doi:10.1073/pnas.191384198 (2001)), without the calcium chloride and iron(III) chloride hexahydrate was prepared. After filter sterilization, the calcium chloride was added. The medium was ready to use directly or it could be stored at 4° C. in the dark.
A 1× dilution medium was prepared on the day of the experiment. The 2× MSgg medium was diluted to 1× with sterile distilled water (pellicles) or sterile 3% hot (80° C.) agar (biofilms) and iron(III) chloride hexahydrate added to a final concentration of 50 μM (pellicles) or […] (biofilms). Molecules for screening were then added.
Compared to the original MSgg recipe (Branda, S. S., et al. (2001) ibid), the medium used contained 50 μg/ml threonine and the iron concentration to grow biofilm colonies on solid MSgg medium was increased 2.5× to optimize the wrinkled colony morphology. After solidification of the agar, dry the solid MSgg plates in a biological hood for 30-45 min prior to the inoculation.
The next step was to streak out B. subtilis from a −80° C. stock (a LB culture of 10^9 cells/ml frozen in 20% glycerol) to isolate single colonies on a LB-1.5% agar plate with a sterile tip or applicator stick. Cultures were grown overnight at 30° C.
Following this, a single colony was picked from the LB-1.5% agar plate for growth in 3 ml LB broth at 37° C. for 4 hours in a shaking incubator (shaking speed 200 rpm) The LB broth was replaced with biofilm-inducing MSgg medium prior to inoculation by centrifuging 1 ml starter culture for 3 min at 6000 g, carefully removing the supernatant and re-suspending the pellet in 1 ml MSgg medium. The rest of the culture can be discharged.
During the growth of the starter culture, a 12-well cell-culture multidish plate containing 3 ml of MSgg medium without or with a concentration range of the small molecules (natural products to be tested) was prepared. To rule out edge effects, the location of the different concentrations was distributed across the multidish plate. Alternatively, use 24-well cell-culture multidish plates containing 1.5 ml of MSgg medium was used.
The wells of the 12-well cell-culture multidish plate were inoculated with […] of the washed starter culture (1:1000 dilution). In certain embodiments, a lower dilution ratio, i.e. 1:500 could be used. This decreases the development time of the pellicles.
Grow the pellicles at 23° C. was under static conditions for three days. The pellicles were no moved during this time, as it could affect the final surface morphology of the pellicle.
Pictures of the pellicles were taken with a high resolution camera. […]

[2] = test system: tapA-sipW-tasA operon; assay: tapA-sipW-tasA transcription, PtapA-gfp reporter; format: cell-based, Bacillus subtilis; conditions: B. subtilis; matrix genes (sinI, tapA reporters); 1 μM
Description: (§1) Planktonic growth, attachment to surfaces, induction of extracellular matrix genes tapA-sipW-tasA operon sinI regulator involved in biofilm formation, and biofilm development was measured and compared amongst the natural compounds identified by the screen. For the analysis for enhancement of biofilm formation and transcription of matrix genes 1 uM aqueous solutions comprising each natural compound were tested.
(§2) Gene expression: Gene expression was measure using reporter genes (luciferase or green fluorescent protein) Luminescence of a strains harboring sacA: PsinI-luciferase was measure in the presence or absence of 1 μM of the natural compounds presented in FIGS. 2A and 2B. Fluorescence of a strain harboring sacA::PtapA-gfp was measured in presence or absence of 1 μM of the natural compounds shown in FIGS. 2A and 2B. Results are a representative of six independent experiments; the SD represents an average of 5 wells.
(§3) The expression of SinI, the matrix regulator, was measured as was the expression of tapA-sipW-tasA operon, in the absence and presence of the natural compounds listed in FIG. 2B. Specifically, sinI transcription was monitored. SinI transcription is a direct readout for the activity of the genetic pathway resulting in matrix production and biofilm formation. sinI transcription in biofilm-inducing medium was monitored using the sinI promoter fused to luciferase.

[3] = test system: sinI; assay: sinI transcription, sinI promoter fused to luciferase reporter; format: cell-based, Bacillus subtilis; conditions: 1 μM; PsinI-luciferase, luminescence divided by OD600
Description: as §1, §2, §3

[4] = test system: B. subtilis; assay: Planktonic growth; format: cell-based, Bacillus subtilis; conditions: 1 μM
Description: as §1

[5] = test system: P. sytingae pv tomato; assay: Submerged biofilm formation, crystal violet staining of attached cells; format: cell-based
Description: Similar to Example 1, a Pellicle Assay was used to study biofilm inhibitors (FIG. 1). Analysis of submerged biofilm formation by P. sytingae pv tomato included staining attached cells with crystal violet and quantified as known in the art (Mol Microbiology 28:449-461).

COc1cc2oc(-c3ccc(O)c(O)c3)c(OC)c(=O)c2c(O)c1OC [2-(3,4-dihydroxyphenyl)-5-hydroxy-3,6,7-trimethoxy-4H-chromen-4-one]
biofilm formation (promotion/induction/enhancement) [1]: enhance biofilm formation; also recorded: promoted, induced, and enhanced | transcription expression of matrix genes [2]: enhance transcription expression of matrix genes | transcription of sinI [3]: significantly enhanced

COc1cc(O)c2c(=O)c(O[C@@H]3O[C@H](CO)[C@@H](O)[C@H](O)[C@H]3O[C@@H]3O[C@H](CO)[C@@H](O)[C@H](O)[C@H]3O)c(-c3ccc(O)c(O)c3)oc2c1 [3-(((2S,3R,4S,5S,6R)-4,5-dihydroxy-6-(hydroxymethyl)-3-(((2S,3R,4S,5S,6R)-3,4,5-trihydroxy-6-(hydroxymethyl)tetrahydro-2H-pyran-2-yl)oxy)tetrahydro-2H-pyran-2-yl)oxy)-2-(3,4-dihydroxyphenyl)-5-hydroxy-7-methoxy-4H-chromen-4-one]
biofilm formation (promotion/induction/enhancement) [1]: enhance biofilm formation; also recorded: promoted, induced, and enhanced | transcription expression of matrix genes [2]: enhance transcription expression of matrix genes | transcription of sinI [3]: significantly enhanced

CCCCCc1cc(O)c(C/C=C(\C)CCC=C(C)C)c(O)c1 [(E)-2-(3,7-dimethylocta-2,6-dien-1-yl)-5-pentylbenzene-1,3-diol]
pellicle formation (inhibition) [1]: blocked pellicle formation; also recorded: mildly inhibited | effect on planktonic growth [4]: inert to planktonic growth | attachment in the plant pathogen (inhibition) [5]: strongly inhibited attachment

C=C[C@H]1[C@H](OC2OC(CO)C(O)C(O)C2O)OC=C(C(=O)OC)[C@H]1CCOC(=O)c1cc(O)c(O)c(O)c1 (stereo partly drawn) [cornuside, (2S,3R,4S)-methyl 2-((3,4,5-trihydroxy-6-(hydroxymethyl)tetrahydro-2H-pyran-2-yl)oxy)-4-(2-((3,4,5-trihydroxybenzoyl)oxy)ethyl)-3-vinyl-3,4-dihydro-2H-pyran-5-carboxylate]
biofilm formation (promotion/induction/enhancement) [1]: enhance biofilm formation; also recorded: promoted, induced, and enhanced | transcription expression of matrix genes [2]: enhance transcription expression of matrix genes | transcription of sinI [3]: significantly enhanced

COc1cc(-c2cc(=O)c3c(O)c(OC)c(OC)c(O)c3o2)ccc1O [isothymonin, 5,8-dihydroxy-2-(4-hydroxy-3-methoxyphenyl)-6,7-dimethoxy-4H-chromen-4-one]
biofilm formation (promotion/induction/enhancement) [1]: enhance biofilm formation; also recorded: promoted, induced, and enhanced | transcription expression of matrix genes [2]: enhance transcription expression of matrix genes | transcription of sinI [3]: significantly enhanced

eupahakonenin B
pellicle formation (inhibition) [1]: blocked pellicle formation | effect on planktonic growth [4]: inert to planktonic growth

— patent publication US20200367493A1, “BIOCONTROL ENHANCERS” (YEDA RESEARCH AND DEVELOPMENT CO. LTD., priority 2016, published 2020)
